Where a name gives a salt, the structure may show the parent alone.
Legend:
[1] = test system: human B-cell lymphoma OCI-LY10 cells; assay: In vivo efficacy in SCID mouse xenograft model of human B-cell lymphoma OCI-LY10 cells; design: species or system SCID mice; conditions: for Tumor volume (Day 0): Day 0 (grouping, baseline); for Tumor volume (Day 0) / Tumor volume (Day 28): average, SEM in next grid line
Experimental: The study evaluates the antitumor effect of the test compounds using a SID mouse xenograft model of human B-cell lymphoma OCI-LY10 cells.
• 1. Experimental animals: SCID mice, female, 6 to 8 weeks old, weighing 17 to 20 g. Beijing Vital River Laboratory Animal Technology Co., Ltd. • 2. Cell line: The human B-cell lymphoma OCI-LY10 cell line was purchased from Nanjing Cobioer Biosciences Co. Ltd (Cat. No CBP60558).
OCI-LY10 cells were cultured in IMDM medium containing 20% FBS and maintained in a 37° C. incubator with 5% CO2 and saturated humidity. Log phase OCI-LY10 cells were collected, resuspended in IMDM basic medium, and mixed 1:1 with Matrigel. The cell concentration was adjusted to 4×10^7/mL. Under sterile conditions, 0.1 mL of the cell suspension was inoculated subcutaneously into the right flank of SCID mice, with an inoculation concentration of 4×10^6/0.1 mL/mouse.
For the pharmacological experiment, once the tumors reached a certain size, animals with tumors that were either too large, too small, or irregularly shaped were eliminated. Animals with tumor volumes between 167.65 and 231.29 mm^3 were selected. Based on tumor volume, the animals were divided into groups using a random grouping method, with each group consisting of six mice, and the average tumor volume was approximately 201.15 mm^3. The day of grouping was designated as Day 0, and dosing began according to the body weight of the animals. The pharmacological study period lasted for 28 days, with dosing once a day and a 24-hour interval between doses. Intragastric administration was used for administration. During the experiment, the body weight and tumor size of the animals were measured twice a week. Clinical symptoms were observed and recorded daily.
The test compounds were administered at doses of 10 mg/kg, 30 mg/kg, and 100 mg/kg, with a solvent composition of 10% DMSO/10% Solutol/80% H2O. The formula for calculating tumor volume (TV) was: 1/2×a×b^2, where a and b were the measured length and width of the tumor, respectively. The formula for calculating the Tumor Growth Inhibition (TGI) rate was: TGI (%)=[(1−(average tumor volume at the end of administration in a treatment group−average tumor volume at the beginning of administration in this treatment group))/(average tumor volume at the end of treatment in the vehicle control group−average tumor volume at the beginning of treatment in the vehicle control group)]×100%. Relative Tumor Proliferation rate T/C (%): the calculation formula was as follows: T/C %=TRTV/CRTV×100% (TRTV: average RTV of the treatment group; CRTV: average RTV of the negative control group). According to the results of tumor measurement, the relative tumor volume (RTV) was calculated, and the calculation formula was RTV=Vt/V0, where V0 was the tumor volume measured at the time of group administration (i.e. Day 0), VT was the tumor volume at a certain measurement, and TRTV and CRTV were taken from the same day's data.
In this study, experimental data were presented in Mean±SEM.
Statistical analysis was performed using IBM SPSS Statistics software based on the RTV data at the end of the experiment. For comparisons between two groups, a T test was used. For comparisons among three or more groups, one-way ANOVA was utilized. If the variance was homogenous (no significant difference in F value), Tukey's method was applied for analysis. If the variance was heterogeneous (significant difference in F value), the Games-Howell method was used for testing. A p-value of […] was considered statistically significant.

IKZF3 = molecular target: T1, IKZF3 (Homo sapiens, UniProt Q96SW2+Q9UKT9); assay: In Cell Western of IKZF3 protein expression level in MM.1S cells; type: cell-based; conditions: IKZF3, MM.1S cells, 24 hours
T1 construct: host or cells: MM.1S cells
T1 sequence (Q9UKT9 whole entry): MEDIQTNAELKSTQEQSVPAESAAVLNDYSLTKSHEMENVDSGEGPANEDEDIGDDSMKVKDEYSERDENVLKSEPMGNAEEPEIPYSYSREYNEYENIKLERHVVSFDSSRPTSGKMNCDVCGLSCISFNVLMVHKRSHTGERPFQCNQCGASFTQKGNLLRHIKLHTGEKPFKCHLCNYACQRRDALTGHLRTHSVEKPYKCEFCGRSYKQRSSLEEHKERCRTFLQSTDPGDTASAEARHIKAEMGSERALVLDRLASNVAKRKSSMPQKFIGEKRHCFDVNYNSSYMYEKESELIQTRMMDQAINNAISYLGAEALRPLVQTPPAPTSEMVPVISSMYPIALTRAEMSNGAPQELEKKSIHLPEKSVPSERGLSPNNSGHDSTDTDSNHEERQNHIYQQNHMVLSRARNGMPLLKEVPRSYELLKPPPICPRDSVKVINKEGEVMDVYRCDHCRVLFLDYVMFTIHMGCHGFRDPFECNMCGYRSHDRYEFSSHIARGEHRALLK
T1 sequence (Q96SW2 whole entry): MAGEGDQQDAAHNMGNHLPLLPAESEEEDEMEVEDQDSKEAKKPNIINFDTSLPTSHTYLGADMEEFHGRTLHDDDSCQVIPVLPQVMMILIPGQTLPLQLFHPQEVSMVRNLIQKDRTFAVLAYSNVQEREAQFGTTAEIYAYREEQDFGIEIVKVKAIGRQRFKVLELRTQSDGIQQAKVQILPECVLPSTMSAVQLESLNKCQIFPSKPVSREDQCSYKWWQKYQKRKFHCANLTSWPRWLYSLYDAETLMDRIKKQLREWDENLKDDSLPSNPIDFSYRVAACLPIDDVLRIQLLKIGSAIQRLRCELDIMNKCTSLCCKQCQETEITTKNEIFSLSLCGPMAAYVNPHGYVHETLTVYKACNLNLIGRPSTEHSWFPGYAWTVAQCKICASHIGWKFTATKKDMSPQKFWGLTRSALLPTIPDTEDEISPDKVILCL
T1 sequence (Q16531 whole entry partner): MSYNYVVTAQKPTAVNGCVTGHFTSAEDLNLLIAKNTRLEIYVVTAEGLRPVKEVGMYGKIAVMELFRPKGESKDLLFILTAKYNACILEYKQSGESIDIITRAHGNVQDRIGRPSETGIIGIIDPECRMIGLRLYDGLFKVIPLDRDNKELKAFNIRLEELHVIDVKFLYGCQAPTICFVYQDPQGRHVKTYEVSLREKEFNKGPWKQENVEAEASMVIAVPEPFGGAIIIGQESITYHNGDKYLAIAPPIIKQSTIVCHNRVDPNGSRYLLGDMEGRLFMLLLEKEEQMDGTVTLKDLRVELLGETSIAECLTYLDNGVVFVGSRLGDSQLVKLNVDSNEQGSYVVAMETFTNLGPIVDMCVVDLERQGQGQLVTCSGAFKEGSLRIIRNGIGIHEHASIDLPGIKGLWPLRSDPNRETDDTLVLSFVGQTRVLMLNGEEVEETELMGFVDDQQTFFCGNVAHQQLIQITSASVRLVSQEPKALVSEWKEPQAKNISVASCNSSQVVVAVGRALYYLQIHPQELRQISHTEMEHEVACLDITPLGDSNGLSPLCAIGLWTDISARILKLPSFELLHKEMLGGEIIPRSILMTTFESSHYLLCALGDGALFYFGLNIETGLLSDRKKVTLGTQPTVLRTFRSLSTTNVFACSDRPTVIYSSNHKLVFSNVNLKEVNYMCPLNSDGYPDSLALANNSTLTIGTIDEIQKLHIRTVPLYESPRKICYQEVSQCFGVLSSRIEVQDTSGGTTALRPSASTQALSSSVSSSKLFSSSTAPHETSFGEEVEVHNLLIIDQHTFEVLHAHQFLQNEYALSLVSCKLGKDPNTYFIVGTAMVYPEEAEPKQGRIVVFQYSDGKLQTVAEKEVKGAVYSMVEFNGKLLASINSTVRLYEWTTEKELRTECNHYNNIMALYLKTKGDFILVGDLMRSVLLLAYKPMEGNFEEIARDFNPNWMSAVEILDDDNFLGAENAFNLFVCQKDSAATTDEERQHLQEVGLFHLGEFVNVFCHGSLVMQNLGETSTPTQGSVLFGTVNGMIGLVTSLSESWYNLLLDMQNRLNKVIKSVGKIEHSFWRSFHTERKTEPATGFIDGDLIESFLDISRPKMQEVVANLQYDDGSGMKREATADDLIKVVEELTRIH
Experimental: Experimental objective: The experiment aims to assess the degradation effect of the test compounds on IKZF1 and 1KZF3 proteins in MM.1S cells by evaluating the impact of the test compounds on the expression levels of IKZF1 and IZKZF3 proteins in MM.1S cells.
• Cell lines: MMN.1 S cell (sourced from ATCC; Cat. No CRL-2974) • Negative control: 0.100 DMSO.
• 1) Log phase MM.1 S cells were plated in a 96-well plate at 1.2×10^5 cells per well and cultured overnight; • 2) The next day, compounds were added with a starting concentration of 300 nM, diluted threefold across three replicate wells for 10 concentration gradients (including DMSO), and the cells were incubated for 24 hours in an incubator; • 3) The cells were centrifuged, and the supernatant was carefully removed. 150 μL of 4% paraformaldehyde fixative was added along the wall of the wells, avoiding contact with the bottom cells, and the cells were incubated at room temperature for 20 minutes; • 4) Lysis buffer was prepared by mixing 0.5 mL of 10% Triton X-100 with 49.5 mL of PBS until homogenous; • 5) 200 μL of lysis buffer was added along the well walls, again avoiding the bottom cells, and incubated on a shaker at room temperature for 5 minutes; • 6) The wells were washed four times; • 7) 150 μL of Licor […] […]

[2] = 10 mg/kg intragastric once a day
[3] = 30 mg/kg intragastric once a day
[4] = 100 mg/kg intragastric once a day

Row | DC50 (IKZF3) [nM] | Dmax (IKZF3; MM1.S, read-out: Maximum degradation rate Dmax) [%] | SMILES | Tumor volume (Day 0) [1, 2] [mm^3] | T/C (%) (Day 28) [1, 2] | TGI (%) (Day 28) [1, 2] | Tumor volume (Day 28) [1, 2] [mm^3] | Tumor volume (Day 0) [1, 3] [mm^3] | T/C (%) (Day 28) [1, 3] | TGI (%) (Day 28) [1, 3] | Tumor volume (Day 28) [1, 3] [mm^3] | Tumor volume (Day 0) [1, 4] [mm^3] | T/C (%) (Day 28) [1, 4] | TGI (%) (Day 28) [1, 4] | Tumor volume (Day 28) [1, 4] [mm^3]
1 |  |  | O=C1CCC(c2noc3ccc4c(NC(=O)CN5CCN(C[C@H]6CC[C@H](n7cc(NC(=O)c8coc(-c9ccnc(NCC%10CC%10)c9)n8)c(C(F)F)n7)CC6)CC5)cccc4c23)C(=O)N1 (some centres unmarked) [Hydrochloride of WX014] | 202.43 | 47.40 | 60.43 | 685.61 | 199.80 | 23.07 | 89.94 | 322.68 | 199.75 | 12.80 | 100.96 | 188.01
2 | 8.34 | 96.5 | O=C1CCC(c2noc3ccc4c(NC(=O)C(F)(F)C5CCN(CC6CCC(n7cc(NC(=O)c8coc(-c9ccnc(NCC%10CC%10)c9)n8)c(C(F)F)n7)CC6)CC5)cccc4c23)C(=O)N1 (centres unmarked) [Hydrochloride of WX018] |  |  |  |  |  |  |  |  |  |  |  | 

Source: patent US20240400547A1, “2,6-PIPERIDINEDIONE COMPOUND AND APPLICATION THEREOF” (MEDSHINE DISCOVERY INC., priority 2021, published 2024)
